Reference: ChEMBL document CHEMBL1152211, “Structure-activity study at positions 3 and 4 of human neuropeptide S” (Bioorg Med Chem, 2008)
Non-standard residues stand in square brackets, D forms with d. Residues, ends and D or L forms follow the SMILES beside them. *: point of attachment. Arg(Me2a) = CN(C)C(=N)NCCC[C@H](N)C(=O)O; Arg(Me2s) = CN=C(NC)NCCC[C@H](N)C(=O)O; Nva(4-oxo) = CC(=O)C[C@H](N)C(=O)O; hArg = N=C(N)NCCCC[C@H](N)C(=O)O; 2Pal = N[C@@H](Cc1ccccn1)C(=O)O; 3Pal = N[C@@H](Cc1cccnc1)C(=O)O; 4Pal = N[C@@H](Cc1ccncc1)C(=O)O; Cit = NC(=O)NCCC[C@H](N)C(=O)O; Tos = Cc1ccc(S(=O)(=O)*)cc1; Dab = NCC[C@H](N)C(=O)O; Nva = CCC[C@H](N)C(=O)O

Key:
Assay type in all cases: functional, cell-based
[1] = biological target: T1, Neuropeptide S receptor (Mus musculus) (UniProt Q8BZP8); assay: Agonist activity at mouse NPSR expressed in HEK293 cells assessed as increase in intracellular calcium mobilization at 10 uM by FLIPR
T1 sequence (whole entry): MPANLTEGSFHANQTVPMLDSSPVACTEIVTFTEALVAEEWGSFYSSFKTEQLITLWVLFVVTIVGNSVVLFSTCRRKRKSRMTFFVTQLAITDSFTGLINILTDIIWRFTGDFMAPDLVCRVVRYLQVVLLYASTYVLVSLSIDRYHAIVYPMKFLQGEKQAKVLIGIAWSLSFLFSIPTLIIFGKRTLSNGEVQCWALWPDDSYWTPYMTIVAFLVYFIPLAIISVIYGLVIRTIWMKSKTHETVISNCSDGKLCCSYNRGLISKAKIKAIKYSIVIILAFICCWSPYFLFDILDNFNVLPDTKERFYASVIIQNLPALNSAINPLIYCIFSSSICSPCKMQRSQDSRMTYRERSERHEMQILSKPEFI

Neuropeptide S receptor = biological target: T2, Neuropeptide S receptor (Mus musculus, UniProt Q8BZP8); assay: Agonist activity at mouse NPSR expressed in HEK293 cells assessed as increase in intracellular calcium mobilization by FLIPR
T2 sequence (Q8BZP8 whole entry): T1 sequence (whole entry)

[2] = biological target: T1, Neuropeptide S receptor (Mus musculus); assay: Agonist activity at mouse NPSR expressed in HEK293 cells assessed as increase in intracellular calcium mobilization by FLIPR relative to baseline

Molecule | Activity [1] | EC50 (Neuropeptide S receptor) | Emax [2]
CSCC[C@H](NC(=O)CNC(=O)[C@@H](NC(=O)CNC(=O)[C@@H](NC(=O)CNC(=O)[C@H](CC(N)=O)NC(=O)[C@H](CCCCNC(=N)N)NC(=O)[C@H](Cc1ccccc1)NC(=O)[C@@H](N)CO)C(C)C)[C@@H](C)O)C(=O)N[C@@H](CCCCN)C(=O)N[C@@H](CCCCN)C(=O)N[C@H](C(=O)N[C@@H](CO)C(=O)N[C@@H](Cc1ccccc1)C(=O)N[C@@H](CCC(N)=O)C(=O)N[C@@H](CCCNC(=N)N)C(=O)N[C@@H](C)C(=O)N[C@@H](CCCCN)C(=O)N[C@@H](CO)C(=O)O)[C@@H](C)O (H-SF[hArg]NGVGTGMKKTSFQRAKS-OH) |  | 10.7 nM | 288%
H-SFTNGVGTGMKKTSFQRAKS-OH |  | 871 nM | 272%
H-SFHNGVGTGMKKTSFQRAKS-OH |  | 1550 nM | 273%
H-SFFNGVGTGMKKTSFQRAKS-OH | 46% |  | 
CSCC[C@H](NC(=O)CNC(=O)[C@@H](NC(=O)CNC(=O)[C@@H](NC(=O)CNC(=O)[C@H](CC(N)=O)NC(=O)[C@H](CCCNC(N)=O)NC(=O)[C@H](Cc1ccccc1)NC(=O)[C@@H](N)CO)C(C)C)[C@@H](C)O)C(=O)N[C@@H](CCCCN)C(=O)N[C@@H](CCCCN)C(=O)N[C@H](C(=O)N[C@@H](CO)C(=O)N[C@@H](Cc1ccccc1)C(=O)N[C@@H](CCC(N)=O)C(=O)N[C@@H](CCCNC(=N)N)C(=O)N[C@@H](C)C(=O)N[C@@H](CCCCN)C(=O)N[C@@H](CO)C(=O)O)[C@@H](C)O (H-SF[Cit]NGVGTGMKKTSFQRAKS-OH) |  | 166 nM | 285%
H-SFCNGVGTGMKKTSFQRAKS-OH |  | 372 nM | 256%
CSCC[C@H](NC(=O)CNC(=O)[C@@H](NC(=O)CNC(=O)[C@@H](NC(=O)CNC(=O)[C@H](CCN)NC(=O)[C@H](CCCNC(=N)N)NC(=O)[C@H](Cc1ccccc1)NC(=O)[C@@H](N)CO)C(C)C)[C@@H](C)O)C(=O)N[C@@H](CCCCN)C(=O)N[C@@H](CCCCN)C(=O)N[C@H](C(=O)N[C@@H](CO)C(=O)N[C@@H](Cc1ccccc1)C(=O)N[C@@H](CCC(N)=O)C(=O)N[C@@H](CCCNC(=N)N)C(=O)N[C@@H](C)C(=O)N[C@@H](CCCCN)C(=O)N[C@@H](CO)C(=O)O)[C@@H](C)O (H-SFR[Dab]GVGTGMKKTSFQRAKS-OH) | 169% |  | 
CSCC[C@H](NC(=O)CNC(=O)[C@@H](NC(=O)CNC(=O)[C@@H](NC(=O)CNC(=O)[C@H](CC(N)=O)NC(=O)[C@H](CCCNC(=N)N(C)C)NC(=O)[C@H](Cc1ccccc1)NC(=O)[C@@H](N)CO)C(C)C)[C@@H](C)O)C(=O)N[C@@H](CCCCN)C(=O)N[C@@H](CCCCN)C(=O)N[C@H](C(=O)N[C@@H](CO)C(=O)N[C@@H](Cc1ccccc1)C(=O)N[C@@H](CCC(N)=O)C(=O)N[C@@H](CCCNC(=N)N)C(=O)N[C@@H](C)C(=O)N[C@@H](CCCCN)C(=O)N[C@@H](CO)C(=O)O)[C@@H](C)O (H-SF[Arg(Me2a)]NGVGTGMKKTSFQRAKS-OH) |  | 22.4 nM | 
CNC(=O)C[C@H](NC(=O)[C@H](CCCNC(=N)N)NC(=O)[C@H](Cc1ccccc1)NC(=O)[C@@H](N)CO)C(=O)NCC(=O)N[C@H](C(=O)NCC(=O)N[C@H](C(=O)NCC(=O)N[C@@H](CCSC)C(=O)N[C@@H](CCCCN)C(=O)N[C@@H](CCCCN)C(=O)N[C@H](C(=O)N[C@@H](CO)C(=O)N[C@@H](Cc1ccccc1)C(=O)N[C@@H](CCC(N)=O)C(=O)N[C@@H](CCCNC(=N)N)C(=O)N[C@@H](C)C(=O)N[C@@H](CCCCN)C(=O)N[C@@H](CO)C(=O)O)[C@@H](C)O)[C@@H](C)O)C(C)C (H-SFRD(NHMe)GVGTGMKKTSFQRAKS-OH) | 188% |  | 
H-SFSNGVGTGMKKTSFQRAKS-OH | 175% |  | 

The next lines start with the values.

Activity [1] | EC50 (Neuropeptide S receptor) | Emax [2] | Molecule
154% |  |  | CSCC[C@H](NC(=O)CNC(=O)[C@@H](NC(=O)CNC(=O)[C@@H](NC(=O)CNC(=O)[C@H](CC(N)=O)NC(=O)[C@H](Cc1ccncc1)NC(=O)[C@H](Cc1ccccc1)NC(=O)[C@@H](N)CO)C(C)C)[C@@H](C)O)C(=O)N[C@@H](CCCCN)C(=O)N[C@@H](CCCCN)C(=O)N[C@H](C(=O)N[C@@H](CO)C(=O)N[C@@H](Cc1ccccc1)C(=O)N[C@@H](CCC(N)=O)C(=O)N[C@@H](CCCNC(=N)N)C(=O)N[C@@H](C)C(=O)N[C@@H](CCCCN)C(=O)N[C@@H](CO)C(=O)O)[C@@H](C)O (H-SF[4Pal]NGVGTGMKKTSFQRAKS-OH)
104% |  |  | CSCC[C@H](NC(=O)CNC(=O)[C@@H](NC(=O)CNC(=O)[C@@H](NC(=O)CNC(=O)[C@H](CC(N)=O)NC(=O)[C@H](CCCNC(=N)NS(=O)(=O)c1ccc(C)cc1)NC(=O)[C@H](Cc1ccccc1)NC(=O)[C@@H](N)CO)C(C)C)[C@@H](C)O)C(=O)N[C@@H](CCCCN)C(=O)N[C@@H](CCCCN)C(=O)N[C@H](C(=O)N[C@@H](CO)C(=O)N[C@@H](Cc1ccccc1)C(=O)N[C@@H](CCC(N)=O)C(=O)N[C@@H](CCCNC(=N)N)C(=O)N[C@@H](C)C(=O)N[C@@H](CCCCN)C(=O)N[C@@H](CO)C(=O)O)[C@@H](C)O (H-SFR(Tos)NGVGTGMKKTSFQRAKS-OH)
89% |  |  | H-SFENGVGTGMKKTSFQRAKS-OH
73% |  |  | H-SFDNGVGTGMKKTSFQRAKS-OH
129% |  |  | H-SFVNGVGTGMKKTSFQRAKS-OH
136% |  |  | CSCC[C@H](NC(=O)CNC(=O)[C@@H](NC(=O)CNC(=O)[C@@H](NC(=O)CNC(=O)[C@H](CC(C)=O)NC(=O)[C@H](CCCNC(=N)N)NC(=O)[C@H](Cc1ccccc1)NC(=O)[C@@H](N)CO)C(C)C)[C@@H](C)O)C(=O)N[C@@H](CCCCN)C(=O)N[C@@H](CCCCN)C(=O)N[C@H](C(=O)N[C@@H](CO)C(=O)N[C@@H](Cc1ccccc1)C(=O)N[C@@H](CCC(N)=O)C(=O)N[C@@H](CCCNC(=N)N)C(=O)N[C@@H](C)C(=O)N[C@@H](CCCCN)C(=O)N[C@@H](CO)C(=O)O)[C@@H](C)O (H-SFR[Nva(4-oxo)]GVGTGMKKTSFQRAKS-OH)
 | 31.6 nM |  | C/N=C(/NC)NCCC[C@H](NC(=O)[C@H](Cc1ccccc1)NC(=O)[C@@H](N)CO)C(=O)N[C@@H](CC(N)=O)C(=O)NCC(=O)N[C@H](C(=O)NCC(=O)N[C@H](C(=O)NCC(=O)N[C@@H](CCSC)C(=O)N[C@@H](CCCCN)C(=O)N[C@@H](CCCCN)C(=O)N[C@H](C(=O)N[C@@H](CO)C(=O)N[C@@H](Cc1ccccc1)C(=O)N[C@@H](CCC(N)=O)C(=O)N[C@@H](CCCNC(=N)N)C(=O)N[C@@H](C)C(=O)N[C@@H](CCCCN)C(=O)N[C@@H](CO)C(=O)O)[C@@H](C)O)[C@@H](C)O)C(C)C (H-SF[Arg(Me2s)]NGVGTGMKKTSFQRAKS-OH)
89% |  |  | CSCC[C@H](NC(=O)CNC(=O)[C@@H](NC(=O)CNC(=O)[C@@H](NC(=O)CNC(=O)[C@H](CC(=O)N(C)C)NC(=O)[C@H](CCCNC(=N)N)NC(=O)[C@H](Cc1ccccc1)NC(=O)[C@@H](N)CO)C(C)C)[C@@H](C)O)C(=O)N[C@@H](CCCCN)C(=O)N[C@@H](CCCCN)C(=O)N[C@H](C(=O)N[C@@H](CO)C(=O)N[C@@H](Cc1ccccc1)C(=O)N[C@@H](CCC(N)=O)C(=O)N[C@@H](CCCNC(=N)N)C(=O)N[C@@H](C)C(=O)N[C@@H](CCCCN)C(=O)N[C@@H](CO)C(=O)O)[C@@H](C)O (H-SFRD(NMe2)GVGTGMKKTSFQRAKS-OH)
146% |  |  | H-SFRDGVGTGMKKTSFQRAKS-OH
19% |  |  | CSCC[C@H](NC(=O)CNC(=O)[C@@H](NC(=O)CNC(=O)[C@@H](NC(=O)CNC(=O)[C@H](CC(N)=O)NC(=O)[C@H](Cc1ccccn1)NC(=O)[C@H](Cc1ccccc1)NC(=O)[C@@H](N)CO)C(C)C)[C@@H](C)O)C(=O)N[C@@H](CCCCN)C(=O)N[C@@H](CCCCN)C(=O)N[C@H](C(=O)N[C@@H](CO)C(=O)N[C@@H](Cc1ccccc1)C(=O)N[C@@H](CCC(N)=O)C(=O)N[C@@H](CCCNC(=N)N)C(=O)N[C@@H](C)C(=O)N[C@@H](CCCCN)C(=O)N[C@@H](CO)C(=O)O)[C@@H](C)O (H-SF[2Pal]NGVGTGMKKTSFQRAKS-OH)
73% |  |  | H-SFYNGVGTGMKKTSFQRAKS-OH
161% |  |  | H-SFNNGVGTGMKKTSFQRAKS-OH
42% |  |  | CSCC[C@H](NC(=O)CNC(=O)[C@@H](NC(=O)CNC(=O)[C@@H](NC(=O)CNC(=O)[C@H](CC(N)=O)NC(=O)[C@H](Cc1cccnc1)NC(=O)[C@H](Cc1ccccc1)NC(=O)[C@@H](N)CO)C(C)C)[C@@H](C)O)C(=O)N[C@@H](CCCCN)C(=O)N[C@@H](CCCCN)C(=O)N[C@H](C(=O)N[C@@H](CO)C(=O)N[C@@H](Cc1ccccc1)C(=O)N[C@@H](CCC(N)=O)C(=O)N[C@@H](CCCNC(=N)N)C(=O)N[C@@H](C)C(=O)N[C@@H](CCCCN)C(=O)N[C@@H](CO)C(=O)O)[C@@H](C)O (H-SF[3Pal]NGVGTGMKKTSFQRAKS-OH)
240% |  |  | CCC[C@H](NC(=O)[C@H](CCCNC(=N)N)NC(=O)[C@H](Cc1ccccc1)NC(=O)[C@@H](N)CO)C(=O)NCC(=O)N[C@H](C(=O)NCC(=O)N[C@H](C(=O)NCC(=O)N[C@@H](CCSC)C(=O)N[C@@H](CCCCN)C(=O)N[C@@H](CCCCN)C(=O)N[C@H](C(=O)N[C@@H](CO)C(=O)N[C@@H](Cc1ccccc1)C(=O)N[C@@H](CCC(N)=O)C(=O)N[C@@H](CCCNC(=N)N)C(=O)N[C@@H](C)C(=O)N[C@@H](CCCCN)C(=O)N[C@@H](CO)C(=O)O)[C@@H](C)O)[C@@H](C)O)C(C)C (H-SFR[Nva]GVGTGMKKTSFQRAKS-OH)
36% |  |  | H-SFLNGVGTGMKKTSFQRAKS-OH
118% |  |  | H-SFRFGVGTGMKKTSFQRAKS-OH
